Reference: PubChem BioAssay AID248 (DTP/NCI, 2004)
Values joined by “and” are separate entries in the source; they are usually repeats but may differ in a detail not shown here. Equal entries are not always repeated. Toxic doses and inconclusive results are not listed. Rule as the data show it: active = T/C of 150% or more; inactive = T/C below 125%.

Test system: L1210 leukemia ip in BDF1 mice, survival T/C
Assay: NCI In Vivo Anticancer Drug Screen. Data for tumor model L1210 Leukemia (intraperitoneal) in B6D2F1 (BDF1) mice
Conditions: endpoint: mean survival time, higher = longer survival
How it was run: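 Survival endpoint. Drug-treated group vs vehicle group, expressed as T divided by C. Tumor passaged by transplantation.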

[1] = dose: 100.0 mg/kg/injection, schedule: Q04DX002 (ip), vehicle: Klucel (hydroxypropylcellulose) (HPC)
[2] = dose: 200.0 mg/kg/injection, schedule: Q04DX002 (ip), vehicle: Klucel (hydroxypropylcellulose) (HPC)
[3] = dose: 400.0 mg/kg/injection, schedule: Q04DX002 (ip), vehicle: Klucel (hydroxypropylcellulose) (HPC)
[4] = dose: 100.0 mg/kg/injection, schedule: Q01DX001 (ip), vehicle: saline
[5] = dose: 200.0 mg/kg/injection, schedule: Q01DX001 (ip), vehicle: saline
[6] = dose: 100.0 mg/kg/injection, schedule: Q04DX003 (ip), vehicle: Klucel (hydroxypropylcellulose) (HPC)
[7] = dose: 200.0 mg/kg/injection, schedule: Q04DX003 (ip), vehicle: Klucel (hydroxypropylcellulose) (HPC)
[8] = dose: 400.0 mg/kg/injection, schedule: Q04DX003 (ip), vehicle: Klucel (hydroxypropylcellulose) (HPC)
[9] = dose: 100.0 mg/kg/injection, schedule: Q01DX001 (ip), vehicle: Klucel (hydroxypropylcellulose) (HPC)
[10] = dose: 200.0 mg/kg/injection, schedule: Q01DX001 (ip), vehicle: Klucel (hydroxypropylcellulose) (HPC)
[11] = dose: 400.0 mg/kg/injection, schedule: Q01DX001 (ip), vehicle: Klucel (hydroxypropylcellulose) (HPC)
[12] = dose: 100.0 mg/kg/injection, schedule: Q01DX009 (ip), vehicle: saline with Tween-80
[13] = dose: 100.0 mg/kg/injection, schedule: Q04DX003 (ip), vehicle: saline with Tween-80
[14] = dose: 200.0 mg/kg/injection, schedule: Q01DX009 (ip), vehicle: saline with Tween-80
[15] = dose: 200.0 mg/kg/injection, schedule: Q04DX003 (ip), vehicle: saline with Tween-80
[16] = dose: 400.0 mg/kg/injection, schedule: Q04DX003 (ip), vehicle: saline with Tween-80
[17] = dose: 100.0 mg/kg/injection, schedule: Q04DX003 (ip), vehicle: saline
[18] = dose: 50.0 mg/kg/injection, schedule: Q01DX009 (ip), vehicle: saline with Tween-80
[19] = dose: 50.0 mg/kg/injection, schedule: Q04DX003 (ip), vehicle: saline with Tween-80
[20] = dose: 25.0 mg/kg/injection, schedule: Q01DX009 (ip), vehicle: saline with Tween-80
[21] = dose: 100.0 mg/kg/injection, schedule: Q01DX009 (ip), vehicle: Klucel (hydroxypropylcellulose) (HPC)
[22] = dose: 200.0 mg/kg/injection, schedule: Q01DX009 (ip), vehicle: Klucel (hydroxypropylcellulose) (HPC)
[23] = dose: 400.0 mg/kg/injection, schedule: Q01DX009 (ip), vehicle: Klucel (hydroxypropylcellulose) (HPC)

Measured: T/C

CCCCCC(=O)N(CCCC)CCCC
inactive: dose: 100.0 mg/kg/injection, schedule: Q01DX001 (ip), vehicle: carboxymethylcellulose (CMC) 103 % of control | dose: 100.0 mg/kg/injection, schedule: Q01DX009 (ip), vehicle: carboxymethylcellulose (CMC) 97 % of control and 98 % of control | dose: 100.0 mg/kg/injection, schedule: Q04DX002 (ip), vehicle: carboxymethylcellulose (CMC) 102 % of control and 103 % of control | dose: 100.0 mg/kg/injection, schedule: Q04DX003 (ip), vehicle: carboxymethylcellulose (CMC) 98 % of control | dose: 200.0 mg/kg/injection, schedule: Q01DX001 (ip), vehicle: carboxymethylcellulose (CMC) 110 % of control | dose: 200.0 mg/kg/injection, schedule: Q01DX009 (ip), vehicle: carboxymethylcellulose (CMC) 94 % of control and 103 % of control | dose: 200.0 mg/kg/injection, schedule: Q04DX002 (ip), vehicle: carboxymethylcellulose (CMC) 97 % of control and 105 % of control | dose: 200.0 mg/kg/injection, schedule: Q04DX003 (ip), vehicle: carboxymethylcellulose (CMC) 97 % of control | dose: 400.0 mg/kg/injection, schedule: Q01DX001 (ip), vehicle: carboxymethylcellulose (CMC) 106 % of control | dose: 400.0 mg/kg/injection, schedule: Q01DX009 (ip), vehicle: carboxymethylcellulose (CMC) 98 % of control | dose: 400.0 mg/kg/injection, schedule: Q04DX002 (ip), vehicle: carboxymethylcellulose (CMC) 97 % of control and 109 % of control | dose: 400.0 mg/kg/injection, schedule: Q04DX003 (ip), vehicle: carboxymethylcellulose (CMC) 97 % of control

Nc1nc(Cl)c(N=Nc2ccc(Cl)cc2)c(NC2CC(O)C(CO)C2)n1 (stereo not drawn)
inactive: [1] 104 % of control | [2] 100 % of control | [3] 96 % of control

CCCCCN(C(=N)CCCC)S(=O)(=O)c1ccccc1
inactive: [4] 89 % of control | [5] 95 % of control | dose: 400.0 mg/kg/injection, schedule: Q01DX001 (ip), vehicle: saline 106 % of control

COc1ccc(N(Cc2ccccc2)c2nn[nH]n2)cc1
inactive: [6] 93 % of control | [7] 90 % of control | [8] 97 % of control

CCCCC1C(=O)OC(C(C)C(O)CCCN=C(N)N)C(C)C=C(C)CCCCC(O)CC(O)CC(O)CC(O)CC(O)C(OC2OC(CO)C(O)C2O)C=C(C)C(O)CCCC(O)CCCC(O)CCC(C)C1O (stereo not drawn)
inactive: dose: 0.71 mg/kg/injection, schedule: Q01DX Z (ip), vehicle: carboxymethylcellulose (CMC) 96 % of control

CC(=O)OC1=CC(=O)C(OC(C)=O)=C(c2c(C)cc(C)c(Br)c2C)C1=O
inactive: dose: 50.0 mg/kg/injection, schedule: Q01DX001 (ip), vehicle: saline 91 % of control | [4] 95 % of control | [5] 101 % of control

CCS(=O)(=O)CS(=O)(=O)c1ccc(C)cc1
inactive: [9] 103 % of control | [10] 103 % of control | [11] 103 % of control

C=CCOc1ccnc(N)n1
inactive: [12] 90 % of control | [13] 105 % of control | [14] 95 % of control | [15] 100 % of control | dose: 400.0 mg/kg/injection, schedule: Q01DX009 (ip), vehicle: saline with Tween-80 100 % of control | [16] 102 % of control

CCN1CCC2CN(C)CCN2C1=S (stereo not drawn)
inactive: dose: 25.0 mg/kg/injection, schedule: Q04DX003 (ip), vehicle: saline 98 % of control | dose: 50.0 mg/kg/injection, schedule: Q04DX003 (ip), vehicle: saline 105 % of control | [4] 92 % of control | [17] 94 % of control

CC(=O)CC(=O)N(C(=O)CC(C)=O)c1ccccc1C
inactive: [18] 105 % of control | [12] 105 % of control | [14] 94 % of control

CCOC(=O)c1c[nH]c2c(c1=O)c(=O)n(C)c(=O)n2C
inactive: [9] 97 % of control | [10] 101 % of control | [11] 94 % of control

ClCc1ccc2ccccc2n1
inactive: [19] 104 % of control | [13] 102 % of control | [15] 93 % of control

OC12Cc3ccccc3C1=NN(c1ccccc1)C2c1ccccc1 (stereo not drawn)
inactive: [20] 101 % of control | [18] 104 % of control | [12] 90 % of control | [13] 93 % of control | [15] 97 % of control | [16] 91 % of control

O=C(CC(CC(=O)c1ccccc1)c1ccco1)c1ccccc1
inactive: [21] 90 % of control | [6] 94 % of control | [22] 94 % of control | [7] 101 % of control | [23] 86 % of control | [8] 92 % of control

CN1CC2CCCCC1C2OC(=O)C(c1ccccc1)c1ccccc1 (stereo not drawn)
inactive: dose: 75.0 mg/kg/injection, schedule: Q01DX001 (ip), vehicle: saline 110 % of control | dose: 150.0 mg/kg/injection, schedule: Q01DX001 (ip), vehicle: saline 101 % of control

Brc1cccc([Si](c2ccccc2)(c2ccccc2)c2cccc(Br)c2)c1
inactive: [13] 98 % of control | [15] 98 % of control | [16] 95 % of control

CCCc1c(N)nc(=S)[nH]c1C(=O)O
inactive: [21] 102 % of control | [17] 96 % of control | [22] 97 % of control | dose: 200.0 mg/kg/injection, schedule: Q04DX003 (ip), vehicle: saline 119 % of control | [23] 94 % of control

CC(=O)Nc1ccc(/C=C/c2ccc([N+](=O)[O-])cc2)cc1
inactive: [21] 100 % of control | [1] 96 % of control | [6] 100 % of control | [22] 95 % of control | [2] 93 % of control | [7] 98 % of control | [23] 92 % of control | [3] 104 % of control | [8] 107 % of control

CCCC(C)Cc1ccc(C(=O)O)cc1 (stereo not drawn)
inactive: [21] 95 % of control | [6] 97 % of control | [22] 104 % of control | [7] 103 % of control | [8] 107 % of control

CCOc1ccc(-n2c(=O)c(N=Nc3ccccc3C)c(O)n(-c3ccc(C)cc3)c2=S)cc1
inactive: dose: 37.5 mg/kg/injection, schedule: Q01DX001 (ip), vehicle: Klucel (hydroxypropylcellulose) (HPC) 92 % of control | dose: 75.0 mg/kg/injection, schedule: Q01DX001 (ip), vehicle: Klucel (hydroxypropylcellulose) (HPC) 101 % of control | dose: 150.0 mg/kg/injection, schedule: Q01DX001 (ip), vehicle: Klucel (hydroxypropylcellulose) (HPC) 97 % of control

O=C(O)/C(=C\CCCCC/C=C(\CCO)C(=O)O)CCO
inactive: [21] 100 % of control | [6] 98 % of control | [22] 96 % of control | [7] 100 % of control | [23] 99 % of control | [8] 91 % of control

CCCCCCCCCCCCCCCCS(=O)(=O)c1ccc(Cl)cc1
inactive: dose: 100.0 mg/kg/injection, schedule: Q01DX009 (ip), vehicle: gum acacia 91 % of control | dose: 100.0 mg/kg/injection, schedule: Q04DX003 (ip), vehicle: gum acacia 94 % of control | dose: 200.0 mg/kg/injection, schedule: Q01DX009 (ip), vehicle: gum acacia 92 % of control | dose: 200.0 mg/kg/injection, schedule: Q04DX003 (ip), vehicle: gum acacia 93 % of control | dose: 400.0 mg/kg/injection, schedule: Q01DX009 (ip), vehicle: gum acacia 91 % of control | dose: 400.0 mg/kg/injection, schedule: Q04DX003 (ip), vehicle: gum acacia 86 % of control

CCSC(=O)Nc1cccc(OC(=O)NC)c1
inactive: dose: 100.0 mg/kg/injection, schedule: Q01DX001 (ip), vehicle: saline with Tween-80 100 % of control | dose: 200.0 mg/kg/injection, schedule: Q01DX001 (ip), vehicle: saline with Tween-80 97 % of control | dose: 400.0 mg/kg/injection, schedule: Q01DX001 (ip), vehicle: saline with Tween-80 97 % of control

CCN(CC)CCOc1cccc(C)c1C
inactive: [20] 101 % of control | [18] 101 % of control | [19] 98 % of control | [12] 102 % of control | [13] 90 % of control

Cc1nc2nc3c(ncn3C3OC(CO)C(O)C3O)c(=O)n2nc1C (stereo not drawn)
inactive: dose: 100.0 mg/kg/injection, schedule: Q01DX005 (ip), vehicle: saline 102 % of control | dose: 200.0 mg/kg/injection, schedule: Q01DX005 (ip), vehicle: saline 92 % of control
